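The compound was tested at five concentrations on cells cultured in 96-well plates, with a 48-hour exposure period. GI50 = concentration required for 50% inhibition of growth.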 Activity calls are given as the source filed them. Cut-off read from the data, not from the text of the source: active = GI50 up to about 1.1 µM and inactive = higher.
Experiments:
Experiment in all cases: NCI tumour cell line growth inhibition, 48 h
RPMI-8226 = tested on: RPMI-8226
HL-60 = tested on: HL-60
SN12C = tested on: SN12C
DU-145 = tested on: DU-145
HCT-116 = tested on: HCT-116
COLO 205 = tested on: COLO 205
MDA-MB-435 = tested on: MDA-MB-435
A549 = tested on: A549
KM12 = tested on: KM12
PC-3 = tested on: PC-3
HCC 2998 = tested on: HCC 2998
OVCAR-4 = tested on: OVCAR-4
OVCAR-5 = tested on: OVCAR-5
MOLT-4 = tested on: MOLT-4
ACHN = tested on: ACHN
MDA-MB-231 = tested on: MDA-MB-231
Hs-578T = tested on: Hs-578T
RXF 393 = tested on: RXF 393
786-0 = tested on: 786-0
BT-549 = tested on: BT-549
OVCAR-8 = tested on: OVCAR-8
NCI-H522 = tested on: NCI-H522
NCI-H226 = tested on: NCI-H226
SW-620 = tested on: SW-620
NCI/ADR-RES = tested on: NCI/ADR-RES
HT-29 = tested on: HT-29
SK-MEL-2 = tested on: SK-MEL-2
SNB-19 = tested on: SNB-19
M14 = tested on: M14
SNB-75 = tested on: SNB-75
CCRF-CEM = tested on: CCRF-CEM
IGROV-1 = tested on: IGROV-1
EKVX = tested on: EKVX
HOP-92 = tested on: HOP-92
NCI-H23 = tested on: NCI-H23
UACC-257 = tested on: UACC-257
HOP-62 = tested on: HOP-62
OVCAR-3 = tested on: OVCAR-3
A498 = tested on: A498
MCF7 = tested on: MCF7
U-251 = tested on: U-251
HCT-15 = tested on: HCT-15
SF-268 = tested on: SF-268
SK-MEL-5 = tested on: SK-MEL-5
Malme-3M = tested on: Malme-3M
UACC-62 = tested on: UACC-62
UO-31 = tested on: UO-31
SK-OV-3 = tested on: SK-OV-3
SK-MEL-28 = tested on: SK-MEL-28
SF-295 = tested on: SF-295
NCI-H460 = tested on: NCI-H460
T47D = tested on: T47D
TK-10 = tested on: TK-10
CAKI-1 = tested on: CAKI-1
K562 = tested on: K562
MDA-N = tested on: MDA-N
LOX IMVI = tested on: LOX IMVI
SR = tested on: SR
SF-539 = tested on: SF-539

SMILES: O=C1NC(N/N=C/c2ccccc2)=N/C1=C\c1ccco1
- GI50 (RPMI-8226): 21.1 µM (inactive)
- GI50 (HL-60): > 100 µM (inactive)
- GI50 (SN12C): 35.6 µM (inactive)
- GI50 (DU-145): 32.9 µM (inactive)
- GI50 (HCT-116): 42.9 µM (inactive)
- GI50 (COLO 205): 57.4 µM (inactive)
- GI50 (MDA-MB-435): 51.9 µM (inactive)
- GI50 (A549): 27.7 µM (inactive)
- GI50 (KM12): 47.6 µM (inactive)
- GI50 (PC-3): 33.9 µM (inactive)
- GI50 (HCC 2998): 32.1 µM (inactive)
- GI50 (OVCAR-4): 38.5 µM (inactive)
- GI50 (OVCAR-5): > 100 µM (inactive)
- GI50 (MOLT-4): 37.1 µM (inactive)
- GI50 (ACHN): 21.9 µM (inactive)
- GI50 (MDA-MB-231): 65.2 µM (inactive)
- GI50 (Hs-578T): 31.5 µM (inactive)
- GI50 (RXF 393): 25.1 µM (inactive)
- GI50 (786-0): 22.3 µM (inactive)
- GI50 (BT-549): 23.7 µM (inactive)
- GI50 (OVCAR-8): 16.1 µM (inactive)
- GI50 (NCI-H522): 26.1 µM (inactive)
- GI50 (NCI-H226): 35.5 µM (inactive)
- GI50 (SW-620): 46 µM (inactive)
- GI50 (NCI/ADR-RES): 32.7 µM (inactive)
- GI50 (HT-29): 51.9 µM (inactive)
- GI50 (SK-MEL-2): 25.9 µM (inactive)
- GI50 (SNB-19): 36.5 µM (inactive)
- GI50 (M14): 46.2 µM (inactive)
- GI50 (SNB-75): 47.8 µM (inactive)
- GI50 (CCRF-CEM): 25.6 µM (inactive)
- GI50 (IGROV-1): 16.9 µM (inactive)
- GI50 (EKVX): 36.7 µM (inactive)
- GI50 (HOP-92): 11.3 µM (inactive)
- GI50 (NCI-H23): 26.4 µM (inactive)
- GI50 (UACC-257): > 100 µM (inactive)
- GI50 (HOP-62): 19.8 µM (inactive)
- GI50 (OVCAR-3): 33.8 µM (inactive)
- GI50 (A498): > 100 µM (inactive)
- GI50 (MCF7): 40.2 µM (inactive)
- GI50 (U-251): 24.8 µM (inactive)
- GI50 (HCT-15): 40.6 µM
- GI50 (SF-268): 24.5 µM (inactive)
- GI50 (SK-MEL-5): 45.9 µM (inactive)
- GI50 (Malme-3M): > 100 µM (inactive)
- GI50 (UACC-62): 28.7 µM (inactive)
- GI50 (UO-31): 46.8 µM (inactive)
- GI50 (SK-OV-3): 54.2 µM (inactive)
- GI50 (SK-MEL-28): 51.8 µM (inactive)
- GI50 (SF-295): 33.1 µM (inactive)
- GI50 (NCI-H460): 20.7 µM (inactive)
- GI50 (T47D): 26.9 µM (inactive)
- GI50 (TK-10): 31.5 µM (inactive)
- GI50 (CAKI-1): 37.3 µM (inactive)

SMILES: O=C1C[C@H]2[C@@H](O1)[C@@H](O)CN1C(=O)c3ccccc3[C@H]21
- GI50 (RPMI-8226): > 100 µM (inactive)
- GI50 (SN12C): > 100 µM (inactive)
- GI50 (K562): > 100 µM (inactive)
- GI50 (DU-145): > 100 µM (inactive)
- GI50 (HCT-116): > 100 µM (inactive)
- GI50 (COLO 205): > 100 µM (inactive)
- GI50 (MDA-MB-435): > 100 µM (inactive)
- GI50 (A549): > 100 µM (inactive)
- GI50 (KM12): > 100 µM (inactive)
- GI50 (PC-3): > 100 µM (inactive)
- GI50 (HCC 2998): > 100 µM (inactive)
- GI50 (OVCAR-4): > 100 µM (inactive)
- GI50 (OVCAR-5): > 100 µM (inactive)
- GI50 (MOLT-4): > 100 µM (inactive)
- GI50 (ACHN): > 100 µM (inactive)
- GI50 (MDA-MB-231): > 100 µM (inactive)
- GI50 (RXF 393): > 100 µM (inactive)
- GI50 (MDA-N): > 100 µM (inactive)
- GI50 (786-0): > 100 µM (inactive)
- GI50 (BT-549): > 100 µM (inactive)
- GI50 (OVCAR-8): > 100 µM (inactive)
- GI50 (NCI-H522): > 100 µM (inactive)
- GI50 (NCI-H226): > 100 µM (inactive)
- GI50 (SW-620): > 100 µM (inactive)
- GI50 (NCI/ADR-RES): > 100 µM (inactive)
- GI50 (LOX IMVI): > 100 µM (inactive)
- GI50 (HT-29): > 100 µM (inactive)
- GI50 (SR): > 100 µM (inactive)
- GI50 (SK-MEL-2): > 100 µM (inactive)
- GI50 (SNB-19): > 100 µM (inactive)
- GI50 (M14): > 100 µM (inactive)
- GI50 (SNB-75): > 100 µM (inactive)
- GI50 (CCRF-CEM): > 100 µM (inactive)
- GI50 (IGROV-1): > 100 µM (inactive)
- GI50 (EKVX): > 100 µM (inactive)
- GI50 (NCI-H23): > 100 µM (inactive)
- GI50 (UACC-257): > 100 µM (inactive)
- GI50 (HOP-62): > 100 µM (inactive)
- GI50 (A498): > 100 µM (inactive)
- GI50 (MCF7): > 100 µM (inactive)
- GI50 (U-251): > 100 µM (inactive)
- GI50 (HCT-15): > 100 µM
- GI50 (SF-268): > 100 µM (inactive)
- GI50 (SK-MEL-5): > 100 µM (inactive)
- GI50 (Malme-3M): > 100 µM (inactive)
- GI50 (UACC-62): > 100 µM (inactive)
- GI50 (SF-539): > 100 µM (inactive)
- GI50 (UO-31): > 100 µM (inactive)
- GI50 (SK-OV-3): > 100 µM (inactive)
- GI50 (SK-MEL-28): > 100 µM (inactive)
- GI50 (SF-295): > 100 µM (inactive)
- GI50 (NCI-H460): > 100 µM (inactive)
- GI50 (T47D): > 100 µM (inactive)
- GI50 (TK-10): > 100 µM (inactive)
- GI50 (CAKI-1): > 100 µM (inactive)

SMILES: C/C(Sc1ccccc1)=C1/CCCN(Cc2ccccc2)C1
- GI50 (RPMI-8226): 14.5 µM (inactive)
- GI50 (HL-60): 13.7 µM (inactive)
- GI50 (K562): 18 µM (inactive)
- GI50 (DU-145): 47.5 µM (inactive)
- GI50 (COLO 205): 17.5 µM (inactive)
- GI50 (MDA-MB-435): 25.1 µM (inactive)
- GI50 (A549): 32.7 µM (inactive)
- GI50 (KM12): 20.1 µM (inactive)
- GI50 (PC-3): 21.9 µM (inactive)
- GI50 (HCC 2998): 17.2 µM (inactive)
- GI50 (OVCAR-4): 35.2 µM (inactive)
- GI50 (OVCAR-5): 23.7 µM (inactive)
- GI50 (MOLT-4): 16.7 µM (inactive)
- GI50 (ACHN): 31.4 µM (inactive)
- GI50 (MDA-MB-231): 24.1 µM (inactive)
- GI50 (Hs-578T): 16.3 µM (inactive)
- GI50 (RXF 393): 16.6 µM (inactive)
- GI50 (MDA-N): 22.6 µM (inactive)
- GI50 (786-0): 19.5 µM (inactive)
- GI50 (OVCAR-8): 30 µM (inactive)
- GI50 (NCI-H522): 15.8 µM (inactive)
- GI50 (NCI-H226): 12.9 µM (inactive)
- GI50 (SW-620): 28.9 µM (inactive)
- GI50 (NCI/ADR-RES): 24.9 µM (inactive)
- GI50 (LOX IMVI): 14.1 µM (inactive)
- GI50 (HT-29): 35.6 µM (inactive)
- GI50 (SR): 16.1 µM (inactive)
- GI50 (SK-MEL-2): 17.2 µM (inactive)
- GI50 (SNB-19): 36.9 µM (inactive)
- GI50 (M14): 11.9 µM (inactive)
- GI50 (SNB-75): 23.6 µM (inactive)
- GI50 (CCRF-CEM): 20.2 µM (inactive)
- GI50 (IGROV-1): 36.3 µM (inactive)
- GI50 (EKVX): 32.3 µM (inactive)
- GI50 (HOP-92): 17.5 µM (inactive)
- GI50 (NCI-H23): 23.9 µM (inactive)
- GI50 (UACC-257): 18.7 µM (inactive)
- GI50 (HOP-62): 20.6 µM (inactive)
- GI50 (OVCAR-3): 16.6 µM (inactive)
- GI50 (A498): 37.8 µM (inactive)
- GI50 (MCF7): 20.2 µM (inactive)
- GI50 (U-251): 20.5 µM (inactive)
- GI50 (HCT-15): 14.2 µM
- GI50 (SF-268): 36.1 µM (inactive)
- GI50 (SK-MEL-5): 14.3 µM (inactive)
- GI50 (Malme-3M): 14.3 µM (inactive)
- GI50 (UACC-62): 19.9 µM (inactive)
- GI50 (SF-539): 28 µM (inactive)
- GI50 (UO-31): 15.3 µM (inactive)
- GI50 (SK-OV-3): 32.7 µM (inactive)
- GI50 (SK-MEL-28): 23.8 µM (inactive)
- GI50 (SF-295): 17.4 µM (inactive)
- GI50 (NCI-H460): 21.8 µM (inactive)
- GI50 (T47D): 13.3 µM (inactive)
- GI50 (TK-10): 18.6 µM (inactive)
- GI50 (CAKI-1): 24.9 µM (inactive)

SMILES: CC(C)CC(=O)O[C@H]1C(=O)O[C@@H]2C[C@H]3[C@H](C)C(=O)C(O[C@@H]4O[C@H](CO)[C@@H](O)[C@H](O)[C@H]4O)=C[C@]3(C)[C@H]3[C@@H](O)[C@H](O)[C@]4(C(=O)O)OC[C@]32[C@@H]14 [BRUCEOSIDE E]
- GI50 (MDA-MB-435): 61.2 µM (inactive)
- GI50 (KM12): 70.1 µM (inactive)
- GI50 (PC-3): 80.9 µM (inactive)
- GI50 (OVCAR-5): 94 µM (inactive)
- GI50 (MDA-N): 82 µM (inactive)
- GI50 (BT-549): 95.1 µM (inactive)
- GI50 (M14): 91.2 µM (inactive)
- GI50 (SNB-75): 78 µM (inactive)
- GI50 (NCI-H23): 52.4 µM (inactive)
- GI50 (UACC-62): 60 µM (inactive)
- GI50 (UO-31): 71.4 µM (inactive)
- GI50 (SK-OV-3): 52.1 µM (inactive)
- GI50 (T47D): 94.6 µM (inactive)
- GI50 (TK-10): 59.6 µM (inactive)
